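Exposure lasted 48 hours, with cells grown in 96-well plates and compounds tested at five concentrations. GI50 = concentration required for 50% inhibition of growth.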 Active and inactive are the calls of the source. Rule as the data show it: active = GI50 up to about 1.1 µM and inactive = higher.
Legend:
Assay in all cases: growth of human tumour cells (NCI), 48 h
[1] = system: 786-0
[2] = system: A549
[3] = system: COLO 205
[4] = system: EKVX
[5] = system: HOP-62
[6] = system: K562
[7] = system: M14
[8] = system: MOLT-4
[9] = system: NCI-H226
[10] = system: NCI-H522
[11] = system: OVCAR-4
[12] = system: RXF 393
[13] = system: SK-MEL-2
[14] = system: SN12C
[15] = system: SNB-19
[16] = system: U-251
[17] = system: HOP-92
[18] = system: DU-145
[19] = system: MCF7

Measured: GI50

O=C(Nc1cccc2c1C(=O)c1c(NC(=O)c3ccccc3)ccc(Nc3cccc4c3C(=O)c3ccccc3C4=O)c1C2=O)c1ccccc1
inactive: [1] > 100 µM | [2] > 100 µM | [3] > 100 µM | [4] > 100 µM | [5] > 100 µM | [6] > 100 µM | [7] > 100 µM | [8] > 100 µM | [9] > 100 µM | [10] > 100 µM | [11] > 100 µM | [12] 59.4 µM | [13] > 100 µM | [14] > 100 µM | [15] > 100 µM | [16] > 100 µM

CSc1nnc(CCC(=O)Nc2c(C)cccc2C)o1
inactive: [1] > 100 µM | [2] > 100 µM | [3] > 100 µM | [4] > 100 µM | [5] > 100 µM | [17] > 100 µM | [6] > 100 µM | [7] > 100 µM | [8] > 100 µM | [9] > 100 µM | [10] > 100 µM | [11] > 100 µM | [12] > 100 µM | [13] > 100 µM | [14] > 100 µM | [15] > 100 µM | [16] > 100 µM

O=[N+]([O-])c1ccc(N/N=C2\C=CCCC2)c([N+](=O)[O-])c1
inactive: [1] > 100 µM | [2] > 100 µM | [3] > 100 µM | [18] > 100 µM | [4] > 100 µM | [5] 63.5 µM | [17] 52.1 µM | [6] > 100 µM | [7] > 100 µM | [19] > 100 µM | [8] > 10 µM | [9] > 100 µM | [10] > 100 µM | [11] > 100 µM | [13] > 100 µM | [14] > 100 µM | [15] > 100 µM | [16] > 100 µM

N#C/C(=C\c1ccc(O)cc1O)C(N)=O
inactive: [1] > 100 µM | [2] > 100 µM | [3] 12.9 µM | [4] > 100 µM | [5] > 100 µM | [17] 46.1 µM | [6] > 100 µM | [7] 82.2 µM | [8] 58.6 µM | [9] 41.6 µM | [10] 28.3 µM | [11] > 100 µM | [12] 20.5 µM | [13] 98.4 µM | [14] > 100 µM | [15] 87.9 µM | [16] > 100 µM

COC(=O)/C=C/C1C(C(=O)OC)C2(C(=O)OC)CCC1(C(=O)OC)N2 (configuration not stated)
inactive: [1] > 100 µM | [2] > 100 µM | [3] > 100 µM | [4] > 100 µM | [5] > 100 µM | [17] > 100 µM | [6] > 100 µM | [7] > 100 µM | [8] > 100 µM | [9] > 100 µM | [10] > 100 µM | [11] > 100 µM | [12] > 100 µM | [13] > 100 µM | [14] > 100 µM | [15] > 100 µM | [16] > 100 µM

CC(c1cccc2ccccc12)/[N+]([O-])=C/c1ccccc1 (configuration not stated)
inactive: [1] > 100 µM | [2] > 100 µM | [3] > 100 µM | [4] 70.8 µM | [5] > 100 µM | [17] 29.5 µM | [6] > 100 µM | [8] > 100 µM | [10] 78.7 µM | [12] > 100 µM | [13] > 100 µM | [15] > 100 µM | [16] > 100 µM

COC(=O)[C@@H]1Cc2c([nH]c3ccccc23)[C@H](c2ccccc2)N1
inactive: [1] 37.2 µM | [2] 38.6 µM | [3] 20 µM | [4] 44.2 µM | [17] 44.9 µM | [6] 45.2 µM | [7] 25.6 µM | [8] 41.4 µM | [9] 71.8 µM | [10] 21.7 µM | [11] 43.6 µM | [13] 32.4 µM | [14] 28.2 µM | [15] 37.6 µM | [16] 47.8 µM

CC1=C(C(=O)Nc2ccccc2)C(c2ccc(Cl)c(Cl)c2)C(C(=O)Nc2ccccc2)=C(C)N1
inactive: [1] 12.8 µM | [2] 7.48 µM | [3] 15.4 µM | [4] 16.6 µM | [5] 14.5 µM | [7] 11.5 µM | [10] 11.6 µM | [11] 9.75 µM | [12] 8.61 µM | [14] 14.9 µM | [15] 12.9 µM | [16] 14.5 µM
active: [8] 0.512 µM

CCCCCCCCNC(=O)SCCCC
inactive: [1] 30.6 µM | [2] 33.9 µM | [3] 45.2 µM | [4] 29.4 µM | [17] 17.6 µM | [6] 34.4 µM | [7] 33.8 µM | [8] 22.5 µM | [10] 24.4 µM | [11] 36.7 µM | [12] 24.3 µM | [13] 20.9 µM | [14] 37.8 µM | [15] 27.5 µM | [16] 36.9 µM

CC(C)C(=O)/C=C/c1ccccc1
inactive: [1] 46.5 µM | [2] > 100 µM | [3] > 100 µM | [17] > 100 µM | [6] 33.7 µM | [7] > 100 µM | [8] 54.3 µM | [10] 31 µM | [11] > 100 µM | [12] > 100 µM | [13] > 100 µM | [14] 79.3 µM | [15] > 100 µM | [16] 61.2 µM

CCOC(=O)/C(=C/c1ccc(C#N)cc1)N(CC)CC
inactive: [1] > 100 µM | [2] > 100 µM | [3] > 100 µM | [4] > 100 µM | [5] > 100 µM | [17] > 100 µM | [6] > 100 µM | [7] > 100 µM | [8] > 100 µM | [9] > 100 µM | [10] > 100 µM | [11] > 100 µM | [13] > 100 µM | [14] > 100 µM | [16] > 100 µM

CCCc1ccc(/N=C\c2cc(OC)c(OC)c(OC)c2)cc1
inactive: [1] > 100 µM | [2] > 100 µM | [3] > 31.6 µM | [4] > 100 µM | [5] > 100 µM | [17] > 51.3 µM | [6] 36 µM | [7] > 100 µM | [8] > 100 µM | [9] > 100 µM | [10] > 59.2 µM | [11] > 100 µM | [12] > 100 µM | [13] > 100 µM | [14] > 100 µM | [15] > 100 µM | [16] > 100 µM

CCC(C(=O)c1ccccc1)C(CCCC(=O)Nc1c(C)cccc1C)N=O (configuration not stated)
inactive: [1] > 100 µM | [2] > 100 µM | [3] > 100 µM | [4] > 100 µM | [5] > 100 µM | [17] > 100 µM | [6] > 100 µM | [7] > 100 µM | [8] > 100 µM | [9] > 100 µM | [10] > 100 µM | [11] > 100 µM | [13] > 100 µM | [14] > 100 µM | [15] > 100 µM | [16] > 100 µM

O=C(c1ccc(O)cc1)C1c2c3c(cc(O)c2C(c2ccc(O)cc2)C1c1cc(O)cc(O)c1)OC(c1ccc(O)cc1)C3c1cc2c(cc1O)OC(c1ccc(O)cc1)C2c1cc(O)cc(O)c1 (configuration not stated)
inactive: [1] > 12.5 µM | [2] > 12.5 µM | [3] > 12.5 µM | [4] > 12.5 µM | [5] > 12.5 µM | [17] > 12.5 µM | [6] > 12.5 µM | [7] > 12.5 µM | [8] > 12.5 µM | [9] > 12.5 µM | [10] > 12.5 µM | [11] > 12.5 µM | [13] > 12.5 µM | [14] > 12.5 µM | [15] > 12.5 µM | [16] > 12.5 µM

CN1COc2c(n(C)c(=O)[nH]c2=O)C1
inactive: [1] > 100 µM | [2] > 100 µM | [3] 59 µM | [4] > 100 µM | [5] > 100 µM | [17] > 100 µM | [6] > 100 µM | [7] > 100 µM | [8] > 100 µM | [9] > 100 µM | [10] > 100 µM | [11] > 100 µM | [12] > 66.7 µM | [13] > 100 µM | [14] > 100 µM | [15] > 100 µM | [16] > 100 µM

COc1ccc2nc(NC(=O)C(=O)C(C#N)c3ccc(Cl)c(Cl)c3)sc2c1 (configuration not stated)
inactive: [1] > 100 µM | [2] > 100 µM | [3] > 100 µM | [4] 88.9 µM | [5] > 100 µM | [17] 33.9 µM | [6] > 100 µM | [7] > 100 µM | [9] > 100 µM | [10] 36.9 µM | [11] > 100 µM | [12] 52.2 µM | [13] > 100 µM | [14] > 100 µM | [15] > 100 µM | [16] > 100 µM

O=C(/N=N/C(=O)OCc1ccccc1)OCc1ccccc1
inactive: [1] > 100 µM | [2] 81.3 µM | [3] > 100 µM | [4] > 100 µM | [5] > 100 µM | [17] 10.4 µM | [6] 63.5 µM | [7] > 100 µM | [8] 31.9 µM | [11] 66.1 µM | [12] > 100 µM | [13] > 100 µM | [14] > 100 µM | [15] 64.9 µM | [16] 83.8 µM

From ChEMBL document CHEMBL1201862, “PubChem BioAssay data set” (2004)
